Test [1] relates to T. cruzi (Tulahuen strain, DTU VI) expressing beta-galactosidase. Nature of the test: T. cruzi growth inhibition assay. It is filed as cell-based, Trypanosoma cruzi. As to conditions: read-out: T. cruzi EC50; averages of triplicate data; 3T3 host cells, 6 days.
The subject of test [2] is human hepatocellular cells (HepG2). Nature of the test: Mammalian cell growth inhibition assay, HepG2. It is filed as cell-based. As to conditions: for EC50: HepG2, 48 h, read-out: Hep G2 EC50.
For test [3], the system named is human lymphocytic cells (CRL-8155). Description: Mammalian cell growth inhibition assay, CRL-8155. As to conditions: for EC50: CRL8155, 48 h, read-out: CLR‐8155 EC50. It is filed as cell-based.

As a reminder, the EC50 is the concentration at which the effect is half-maximal. Take `Cc1ccc2nc(-c3ccc(F)c(F)c3)c(CN3CCN(C4CCCCC4)CC3)n2c1` [Compound 37]: in test [1], the half-maximal effective concentration (EC50) was determined as 2600 nM.
For `Cc1ccc2nc(-c3ccc(F)c(F)c3)c(CN3CCC(Cc4ccccc4)CC3)n2c1` [Compound 39], the 50% effective concentration (EC50) is 1600 nM in test [1], over 50 µM in test [2] and over 50 µM in test [3].
Usually EC90 stands for the point of the concentration-response curve where the effect stands at 90%. In the case of `CCN(CC)CCCC(C)Nc1c2ccc(Cl)cc2nc2ccc(OC)cc12` (centres unmarked) [Quinacrine], the concentration for a half-maximal effect (EC50) was 14.3 µM in test [2] and 5.47 µM in test [3]. Moreover, the EC90 in test [2] (HepG2, read-out: Hep G2 EC90 (control compound)) came out at 18.7 µM; in test [3] (CRL8155, read-out: CRL‐8155 EC90 (control compound)), 15.7 µM.

Values taken from publication PMC8048860 (Chemmedchem, 2020).
